According to US10253007B2, “Taxanes compounds, preparation method therefor, and uses thereof” (Jiangsu Tasly Diyi Pharmaceutical Co., Ltd., priority 2013, dated 2019):
Like-named read-outs stand apart in the source and are kept apart here.

Tests used:
Caco-2 cell monolayer = Caco-2 cell monolayer membrane transport assay; conditions: for efflux ratio / Papp A-B / Papp B-A: Caco-2 cell line (21 days); for efflux ratio: Papp B-A/Papp A-B; for Papp A-B / Papp B-A: bidirectional transport, Table 5
Excerpt: (§3) Caco-2 Cell Monolayer Membrane Transport Assay
(§4) Human-derived colorectal adenocarcinoma cell line Caco-2 cell monolayer model was used to study the bidirectional transport of the target compounds from the apical (AP) side to the basolateral (BL) side and from BL side to AP side. HPLC was used for quantitative analysis to calculate transport parameters, apparent permeability coefficient (Papp) and the efflux ratio.

[1] = Caco-2 cell monolayer membrane transport assay; conditions: human; for recovery: Caco-2, Recovery rate in mass
Excerpt: as §3, §4

[2] = tested on: breast cancer cell line MCF-7; test: IC50 values on breast cancer cell line MCF-7; assay type: cell-based; conditions: Homo sapiens
Excerpt: From the activity evaluation data of the above-mentioned preliminary screen, it can be seen that the series of taxanes derivatives synthesized in the present invention have activity (although the activity of PCMI-43 is weakened). Afterward, most of the compounds are picked up from these derivatives to examine their IC50 values on breast cancer cell line MCF-7. Paclitaxel is used as the positive control drug. Experiments for each compound were independently repeated for three times and multiple holes were used in each experiment. The exposure time of drugs was 72 hours.

HL60 leukemia = test: MTT assay, proliferation inhibition; assay type: cell-based; conditions: Homo sapiens, HL-60, read-out: Proliferation inhibition rate
Excerpt: (§1) 1. Cytotoxicity Assay Using Human Tumor Cell Lines
(§2) Paclitaxel was used as the positive drug.

BGC-823 gastric cancer = test: MTT assay, proliferation inhibition; assay type: cell-based; conditions: Homo sapiens, read-out: Proliferation inhibition rate
Excerpt: as §1, §2

A2780 ovarian cancer = test: MTT assay, proliferation inhibition; assay type: cell-based; conditions: Homo sapiens, read-out: Proliferation inhibition rate
Excerpt: as §1, §2

B16 melanoma = test: MTT assay, proliferation inhibition; assay type: cell-based; conditions: read-out: Proliferation inhibition rate
Excerpt: as §1, §2

HeLa cervical cancer = test: MTT assay, proliferation inhibition; assay type: cell-based; conditions: Homo sapiens, read-out: Proliferation inhibition rate
Excerpt: as §1, §2

[3] = MTT assay, proliferation inhibition; assay type: cell-based; conditions: Homo sapiens, LN-18 gastric cancer, read-out: Proliferation inhibition rate
Excerpt: as §1, §2

LNCaP prostate cancer = test: MTT assay, proliferation inhibition; assay type: cell-based; conditions: Homo sapiens, read-out: Proliferation inhibition rate
Excerpt: as §1, §2

MDA-MB-436 breast cancer = test: MTT assay, proliferation inhibition; assay type: cell-based; conditions: Homo sapiens, read-out: Proliferation inhibition rate
Excerpt: as §1, §2

[4] = tested on: A549 non-small cell lung cancer; test: MTT assay, proliferation inhibition; assay type: cell-based; conditions: Homo sapiens, read-out: Proliferation inhibition rate
Excerpt: as §1, §2

[5] = tested on: NCI-H460 non-small cell lung cancer; test: MTT assay, proliferation inhibition; assay type: cell-based; conditions: Homo sapiens, read-out: Proliferation inhibition rate
Excerpt: as §1, §2

A375 melanoma = test: MTT assay, proliferation inhibition; assay type: cell-based; conditions: Homo sapiens, A-375, read-out: Proliferation inhibition rate
Excerpt: as §1, §2

MCF-7 breast cancer = test: MTT assay, proliferation inhibition; assay type: cell-based; conditions: Homo sapiens, MCF7, read-out: Proliferation inhibition rate
Excerpt: as §1, §2

K562 leukemia = test: MTT assay, proliferation inhibition; assay type: cell-based; conditions: Homo sapiens, read-out: Proliferation inhibition rate
Excerpt: as §1, §2

HT29 colon cancer = test: MTT assay, proliferation inhibition; assay type: cell-based; conditions: Homo sapiens, HT-29, read-out: Proliferation inhibition rate
Excerpt: as §1, §2

DU145 prostate cancer = test: MTT assay, proliferation inhibition; assay type: cell-based; conditions: Homo sapiens, DU-145, read-out: Proliferation inhibition rate
Excerpt: as §1, §2

HCT 116 colon cancer = test: MTT assay, proliferation inhibition; assay type: cell-based; conditions: Homo sapiens, read-out: Proliferation inhibition rate
Excerpt: as §1, §2

[6] = Caco-2, Papp A-B, Mean, Caco-2, A-B, mean of two samples
[7] = Caco-2, Papp A-B, Sample-01, Caco-2, A-B, Sample-01
[8] = Caco-2, Papp A-B, Sample-02, Caco-2, A-B, Sample-02
[9] = Mean, Caco-2, A-B, mean of two samples
[10] = Sample-01, Caco-2, A-B, Sample-01
[11] = Sample-02, Caco-2, A-B, Sample-02
[12] = MCF7, 72 h, read-out: MCF-7(IC50, nM)
[13] = Caco-2, Papp A-B, Caco-2 cell line (21 days), bidirectional transport, Table 5

SMILES | Papp A→B [1, 7] [×10⁻⁶ cm/s] | Papp A→B [1, 8] [×10⁻⁶ cm/s] | recovery [1, 9] [%] | recovery [1, 10] [%] | recovery [1, 11] [%] | inhibition at 1 µM (HL60 leukemia) [%] | inhibition at 1 µM (BGC-823 gastric cancer) [%] | inhibition at 1 µM (A2780 ovarian cancer) [%] | inhibition at 1 µM (B16 melanoma) [%] | inhibition at 1 µM (HeLa cervical cancer) [%] | inhibition at 1 µM [3] [%] | inhibition at 1 µM (LNCaP prostate cancer) [%] | inhibition at 1 µM (MDA-MB-436 breast cancer) [%] | inhibition at 1 µM [4] [%] | inhibition at 1 µM [5] [%] | inhibition at 1 µM (MCF-7 breast cancer) [%] | inhibition at 1 µM (K562 leukemia) [%] | inhibition at 1 µM (HT29 colon cancer) [%] | inhibition at 1 µM (DU145 prostate cancer) [%] | inhibition at 1 µM (HCT 116 colon cancer) [%] | further results
CO[C@H]1C[C@H]2OC[C@@]2(OC(C)=O)[C@H]2[C@H](OC(=O)c3ccccc3)[C@]3(O)C[C@H](OC(=O)[C@H](O)[C@@H](NC(=O)OC(C)(C)C)c4ccccc4)C(C)=C([C@@H](OC(=O)N(C)C)C(=O)[C@]12C)C3(C)C [PCMI-22] | 9 | 8.38 | 89.4 | 92.4 | 86.4 | 97.5 | 92 | 96.3 | 74.7 | 102 | 95.5 | 80.9 | 81.1 | 69.9 | 86.5 | 85.7 | 92.2 | 87.9 | 87.1 | 81.1 | efflux ratio (Caco-2 cell monolayer): 4.08; Papp A-B (Caco-2 cell monolayer): 8.11 10^−6 cm/s; Papp B-A (Caco-2 cell monolayer): 33.11 10^−6 cm/s; Papp A→B [1, 6]: 8.69 ×10⁻⁶ cm/s; IC50 [2, 12]: 1.58 ± 0.04 nM; inhibition at 1 µM (A375 melanoma): 87.7%
CO[C@H]1C[C@H]2OC[C@@]2(OC(C)=O)[C@H]2[C@H](OC(=O)c3ccccc3)[C@]3(O)C[C@H](OC(=O)[C@H](O)[C@H](CC(C)C)NC(=O)OC(C)(C)C)C(C)=C([C@@H](OC(=O)N(C)C)C(=O)[C@]12C)C3(C)C [PCMI-25] | 6.41 | 9.92 | 71.2 | 63.9 | 78.5 | 97.7 | 90.2 | 94.8 | 71.8 | 101 | 92.5 | 80.4 | 78.4 | 69.5 | 80.7 | 89.8 | 90.9 | 87.3 | 82.9 | 78.3 | Papp B-A (Caco-2 cell monolayer): 32.58 10^−6 cm/s; Papp A→B [1, 13]: 8.25 ×10⁻⁶ cm/s; IC50 [2, 12]: 1.7 ± 0.08 nM; inhibition at 1 µM (A375 melanoma): 89%
COC(=O)O[C@H]1C(=O)[C@]2(C)[C@@H](OC)C[C@H]3OC[C@@]3(OC(C)=O)[C@H]2[C@H](OC(=O)c2ccccc2)[C@]2(O)C[C@H](OC(=O)[C@H](O)[C@@H](NC(=O)OC(C)(C)C)c3ccccc3)C(C)=C1C2(C)C [PCMI-26] | 8.45 | 9.06 | 81.4 | 80.9 | 82 | 96.8 | 89.2 | 95.8 | 69.7 | 101 | 89 | 79.8 | 76.3 | 66.2 | 86.4 | 95.5 | 91.4 | 88.8 | 86.2 | 81.1 | efflux ratio (Caco-2 cell monolayer): 4.22; Papp A-B (Caco-2 cell monolayer): 6.91 10^−6 cm/s; Papp B-A (Caco-2 cell monolayer): 29.18 10^−6 cm/s; Papp A→B [1, 6]: 8.75 ×10⁻⁶ cm/s; IC50 ([2]; MCF7, MCF-7, exposure 72 hours, mean±SD of three independent experiments, read-out: MCF-7(IC50)): 1.4 ± 0.1 nM; inhibition at 1 µM (A375 melanoma): 94.2%
COC(=O)O[C@H]1C(=O)[C@]2(C)[C@@H](OC)C[C@H]3OC[C@@]3(OC(C)=O)[C@H]2[C@H](OC(=O)c2ccccc2)[C@]2(O)C[C@H](OC(=O)[C@H](O)[C@H](CC(C)C)NC(=O)OC(C)(C)C)C(C)=C1C2(C)C [PCMI-28] | 8.58 | 9.46 | 70.8 | 64.8 | 76.8 | 96.9 | 92.2 | 95.6 | 74.1 | 99.7 | 97.5 | 84 | 84.3 | 72.5 | 85.8 | 103 | 92.6 | 89.1 | 85.7 | 81.1 | Papp A-B (Caco-2 cell monolayer): 8.87 10^−6 cm/s; Papp B-A (Caco-2 cell monolayer): 33.26 10^−6 cm/s; Papp A→B [1, 6]: 9.02 ×10⁻⁶ cm/s; IC50 [2, 12]: 2.9 ± 0.06 nM
CO[C@H]1C(=O)[C@]2(C)[C@@H](OC(=O)N(C)C)C[C@H]3OC[C@@]3(OC(C)=O)[C@H]2[C@H](OC(=O)c2ccccc2)[C@]2(O)C[C@H](OC(=O)[C@H](O)[C@H](CC(C)C)NC(=O)OC(C)(C)C)C(C)=C1C2(C)C [PCMI-34] | 11.8 | 9.54 | 67.4 | 71.2 | 63.6 | 98.1 | 94.7 | 95 | 81.4 | 102 | 90.6 | 88.7 | 81.2 | 73.5 | 86.2 | 101 | 92.9 | 89.2 | 86.9 | 60.1 | membrane permeability (in words) (Caco-2 cell monolayer; Caco-2 monolayer): highly permeable substrates; Papp B→A ([1]; Caco-2): 30.9 ×10⁻⁶ cm/s; efflux ratio ([1]; Caco-2): 1.59; Papp A→B [1, 13]: 19.4 ×10⁻⁶ cm/s; Papp A→B [1, 6]: 10.7 ×10⁻⁶ cm/s; Papp A→B ([1]; Caco-2, Papp A-to-B, Caco-2): > 10 ×10⁻⁶ cm/s; IC50 [2, 12]: 13.26 ± 0.12 nM; inhibition at 1 µM (A375 melanoma): 104%
